Test results from patent US5985933A, “Methods for treating central and peripheral nerve pain” (Celgene Corporation, priority 1997, dated 1999).
Read-outs that look alike come from different tables or passages of the source.

Assays:
[1] = system: mechanical (tactile) allodynia in nerve ligation (Chung) model rats; assay: animal or person; details: for Duration / Time to peak effect / Max. efficacy (% MPE): Table I; for Max. efficacy (% MPE): highest dose tested; for ED50: Rattus norvegicus, ip
Description: Rats (male Sprague Dawley, Harlan Industries, Indianapolis, Ind.) are housed in ALAC approved cages using soft bedding and 12/12 hour day/night cycle, in atmospherically maintained rooms in the CTF/VA Animal Vivarium. For the nerve ligation model, rats are typically lesioned at 125-175 g body weight, while for the diabetic rat model, 275-325 gram rats are employed.
Kim SH, Chung JM: An experimental model for peripheral neuropathy produced by segmental spinal nerve ligation in the rat. Pain 50: 355-363 (1992).
Anomalous pain states evoked by nerve injury in man is believed to be modeled by effects produced by chronic peripheral nerve injury lesion in rats. To create a chronic nerve injury the L5 and L6 spinal nerves are visualized by removal of the L6 transverse process. The two spinal nerves are ligated with 6-0 silk thread […] under halothane anesthesia. […] The rats were allowed a 7 day postoperative recovery period before further studies or procedures.
Rats were placed in a clear plastic, wire mesh-bottomed cage, divided into individual compartments of 5×6×9 inches, which permitted freedom of movement while allowing access to the paws to be tested. Animals were allowed to accommodate to this environment for approximately 15 minutes, or until cage exploration behavior ceased. To assess the 50% mechanical threshold for paw withdrawal, von Frey hairs were applied to the plantar mid-hindpaw, avoiding the footpads. The eight von Frey hairs used are designated by and range from 0.4-15.1 grams (#'s3.61-5/18). Each hair was pressed perpendicularly against the paw with sufficient force to cause bending, and held for approximately 6-8 seconds. A positive response was noted if the paw was sharply withdrawn. Absence of a response was cause to present the next consecutive stronger stimulus: a positive response was cause to present the next weaker stimulus. If a change in response occurred, causing a change in the direction of stimulus presentation from descending to ascending or vice-versa, four additional data points were collected subsequent to the change. Stimuli were presented successively until either six data points were collected, or the maximum or minimum stimulus was reached. If a minimum stimulus was reached and positive responses still occurred, the threshold was assigned an arbitrary minimum value of 0.25 grams; if a maximum stimulus was presented and no response occurred, a maximum threshold value of 15 grams was assigned. The resulting pattern of responses was tabulated and the 50% response threshold computed using the formula:
log (threshold, mg×10)=Xf+k∂
Based on observations on normal, unoperated rats and sham-operated rats, the cutoff of a 15.1 g hair is selected as the upper limit for testing. (Chaplan, et al., 1994.)
Four agents were examined. […] The dose range was determined on a single rat on a 0.5 log unit dose until an endpoint of effect was reached (loss of motor function, seizure/rigidity, complete nerve blockage). Once the dose range was established, each drug was examined at a minimum of 3 doses in groups of 6 rats per dose. Groups were prepared to receive injections of drugs, or saline control, by i.p. injection. After the animals accommodated to the post-operative test environment, animals received treatment and the effects upon the tactile threshold were determined using the up-down method as described in Example 3. The following is a typical paradigm for IP application: […]

[2] = system: mechanical (tactile) allodynia in streptozotocin diabetic rats; details: i.p.; for Duration / Time to peak effect: Table III; for Max. efficacy (% MPE): Table III (3, 10 and 20 mg/kg levels only); for maximum efficacy or highest % suppression of allodynia at highest dosage unaffected by toxicity: Example 6
Description: (§1) Rats are made diabetic by a single intraperitoneal injection of streptozotocin (50 mg/kg body weight) freshly dissolved in 0.9% sterile saline) in order to ablate pancreatic β cells and induce insulin deficiency. Two days later, diabetes is confirmed in streptozotocin-injected rats by measuring glucose concentration in a blood sample obtained by tail prick, using a glucose oxidase-impregnated test strip and reflectance meter (Ames Glucostix and Glucometer II, Myles Inc., Elkhart, Ind.) (Calcutt, et al., 1993). Streptozotocin-injected animals with blood glucose concentrations below 15 mmol/l are excluded from subsequent studies. Diabetic rats received thrice weekly sub-cutaneous injections of 2U heat-treated Ultralente insulin (Novo Industrie A/C, Copenhagen, Denmark) in a regime shown to prevent loss of body weight and musculature whilst allowing continued hyperglycemia. Injections were made on Monday, Wednesday and Friday and behavioral measurements made on Tuesdays and Thursdays.

[3] = cited from earlier work
painful neuropathies = details: oral administration, literature; cited from earlier work
[4] = system: mechanical (tactile) allodynia in streptozotocin diabetic rats; assay: animal or person; details: Rattus norvegicus, ip
Description: as §1

cardiac sodium channels = details: Hill et al. 1988; cited from earlier work
arrhythmia in dogs = details: cited from earlier work
[5] = stated without a described test
[6] = read-out: ED 50 or the calculated dose for 50% suppression
[7] = 30 mg/kg, affected by toxicity/behavioral problems, not probative
[8] = Chung model rats, i.p., Example 5

| Structure (SMILES) | Duration ([1]; Chung model rats, i.p.) [min] | Time to peak effect ([1]; Chung model rats, i.p.) [min] | Max. efficacy (% MPE) ([1]; Chung model rats, i.p.) | ED50 [1] [mg/kg] | ED50 [1, 6] [mg/kg] | % MPE ([2]; 3 mg/kg) [% MPE] | % MPE ([2]; 10 mg/kg) [% MPE] | % MPE ([2]; 20 mg/kg) [% MPE] | % MPE [2, 7] [% MPE] | Duration [2] [min] | Time to peak effect [2] [min] | Max. efficacy (% MPE) [2] [% MPE] | ED50 [4] [mg/kg] | maximum efficacy or highest % suppression of allodynia at highest dose tested [1, 8] | maximum efficacy or highest % suppression of allodynia at highest dosage unaffected by toxicity [2] | other results |
| --- | --- | --- | --- | --- | --- | --- | --- | --- | --- | --- | --- | --- | --- | --- | --- | --- |
| Cc1cccc(C)c1OCC(C)N (racemic) [RS-Mexiletine, (R,S)-mexiletine] | 60 | 15 to 30 | 76 | 35 | 35 | 20 | 29 | 42 | 75 | < 60 | 30 to 45 | 61 | 17 |  |  | therapeutic-toxic concentration range ([3]; Monk et al. 1990): 0.5 to 2.0 µg/mL; incidence of adverse side effects (tremors, diplopia, nausea and vomiting) ([3]; human, in vivo): up to 70% of patients; efficacy in painful neuropathies (painful neuropathies): has shown efficacy for a variety of painful neuropathies |
| CCN(CC)CC(=O)Nc1c(C)cccc1C [Lidocaine, lidocaine] | 90 | 15 | 83 | 38 |  |  |  |  |  | 30 | 30 | 39 | 32 |  |  |  |
| Cc1cccc(C)c1OC[C@@H](C)N [R-Mexiletine, (R)-mexiletine] |  | 30 | 12 |  |  | 10 | 15 | 11 | 86 |  | 15 to 30 | 11 |  | 12%±5% | 11%±5% | ED 50 (in words) [1, 8]: could not be calculated due to low effect at maximum dose; binding affinity relative to (S)-mexiletine (cardiac sodium channels): twice that of (S)mexiletine; antiarrhythmic properties relative to the (S)-isomer (arrhythmia in dogs; background finding referred to): greater than two times more antiarrhythmic properties than the (S)-isomer; antiarrhythmic properties relative to the (S)-enantiomer (arrhythmia in dogs; dogs, Turgeon et al. 1991): greater antiarrhythmic properties than the (S)-enantiomer |
| Cc1cccc(C)c1OC[C@H](C)N [S-Mexiletine, (S)-mexiletine] | 60 | 15 | 79 | 14 | 14 | 12 | 50 | 30 | 75 | 60 | 15 to 45 | 65 | 15 | 79%±11% | 65%±16% | therapeutic-toxic range [5]: 0.25 to 4 µg/mL |
